According to PubChem BioAssay (NCI):
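GI50 is the concentration that inhibits growth by half. TGI: concentration producing complete growth inhibition.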

Tests used:
Assay in all cases: NCI tumour cell line growth inhibition, 384-well format
[1] = test system: 786-0 renal
[2] = test system: A498 renal
[3] = test system: A549 NSCLC
[4] = test system: ACHN renal
[5] = test system: BT-549 breast
[6] = test system: CAKI-1 renal
[7] = test system: CCRF-CEM leukemia
[8] = test system: COLO 205 colon
[9] = test system: DU-145 prostate
[10] = test system: EKVX NSCLC
[11] = test system: HCC-2998 colon
[12] = test system: HCT-116 colon
[13] = test system: HCT-15 colon
[14] = test system: HL-60(TB) leukemia
[15] = test system: HOP-62 NSCLC
[16] = test system: HOP-92 NSCLC
[17] = test system: HS 578T breast
[18] = test system: HT29 colon
[19] = test system: IGROV1 ovarian
[20] = test system: K-562 leukemia
[21] = test system: KM12 colon
[22] = test system: LOX IMVI melanoma
[23] = test system: M14 melanoma
[24] = test system: MALME-3M melanoma
[25] = test system: MCF7 breast
[26] = test system: MDA-MB-231 breast
[27] = test system: MDA-MB-435 melanoma
[28] = test system: MDA-MB-468 breast
[29] = test system: MOLT-4 leukemia
[30] = test system: NCI-H226 lung
[31] = test system: NCI-H23 lung
[32] = test system: NCI-H322M lung
[33] = test system: NCI-H460 NSCLC
[34] = test system: NCI-H522 lung
[35] = test system: NCI/ADR-RES ovarian
[36] = test system: OVCAR-3 ovarian
[37] = test system: OVCAR-4 ovarian
[38] = test system: OVCAR-5 ovarian
[39] = test system: OVCAR-8 ovarian
[40] = test system: PC-3 prostate
[41] = test system: RPMI-8226 leukemia
[42] = test system: RXF 393 renal
[43] = test system: SF-268 CNS
[44] = test system: SF-295 CNS
[45] = test system: SF-539 CNS
[46] = test system: SK-MEL-28 melanoma
[47] = test system: SK-MEL-5 melanoma
[48] = test system: SK-OV-3 ovarian
[49] = test system: SN12C renal
[50] = test system: SNB-19 CNS
[51] = test system: SNB-75 CNS
[52] = test system: SW-620 colon
[53] = test system: T-47D breast
[54] = test system: TK-10 renal
[55] = test system: U251 glioblastoma
[56] = test system: UACC-257 melanoma
[57] = test system: UACC-62 melanoma
[58] = test system: UO-31 renal

With `CN[C@@H](C)C(=O)N[C@H](C(=O)N1CCC[C@H]1c1nc(C(=O)c2ccc(F)cc2)cs1)C1CCCCC1` the GI50 [1] was 15.8 µM, the TGI [1] was 29.3 µM and the GI50 [2] was 15.5 µM. For the same compound, the TGI [2] was 29.1 µM, the GI50 [3] was 26.8 µM and the TGI [3] was > 100 µM. For the same compound, the GI50 [4] was 23.3 µM, the TGI [4] was 56.7 µM and the GI50 [5] was 12 µM. The TGI [5] was 24.4 µM, the GI50 [6] was 25.5 µM and the TGI [6] was 48.4 µM. The GI50 [7] was 7.4 µM, the TGI [7] was 20.7 µM and the GI50 [8] was 17.1 µM. For the same compound, the TGI [8] was 32.5 µM, the GI50 [9] was 17.9 µM and the TGI [9] was 39.3 µM. The GI50 [10] was 18.7 µM, the TGI [10] was 41.3 µM and the GI50 [11] was 14.2 µM. The TGI [11] was 27.4 µM, the GI50 [12] was 18 µM and the TGI [12] was 32.3 µM. The GI50 [13] was 20.3 µM, the TGI [13] was 42 µM and the GI50 [14] was 0.612 µM. For the same compound, the TGI [14] was 3 µM, the GI50 [15] was 3.25 µM and the TGI [15] was 17.6 µM. It also gave a GI50 [16] of 4.3 µM, a TGI [16] of 19 µM and a GI50 [17] of 5.06 µM. It also gave a TGI [17] of 20.8 µM, a GI50 [18] of 17.1 µM and a TGI [18] of 31.1 µM. For the same compound, the GI50 [19] was 21.2 µM, the TGI [19] was 39.5 µM and the GI50 [20] was 16.8 µM. The TGI [20] was 30.5 µM, the GI50 [21] was 17.3 µM and the TGI [21] was 32.2 µM. The GI50 [22] was 16.2 µM, the TGI [22] was 29.7 µM and the GI50 [23] was 18.2 µM. It also gave a TGI [23] of 32.2 µM, a GI50 [24] of 0.33 µM and a TGI [24] of 2.99 µM. It also gave a GI50 [25] of 11.7 µM, a TGI [25] of 26.1 µM and a GI50 [26] of 0.597 µM. For the same compound, the TGI [26] was 3.29 µM, the GI50 [27] was 14.1 µM and the TGI [27] was 33.5 µM. For the same compound, the GI50 [28] was 1.86 µM, the TGI [28] was 13.8 µM and the GI50 [29] was 13.1 µM. For the same compound, the TGI [29] was 25.7 µM, the GI50 [30] was 21.7 µM and the TGI [30] was 60.5 µM. The GI50 [31] was 13.3 µM, the TGI [31] was 35.2 µM and the GI50 [32] was 20.3 µM. It also gave a TGI [32] of 51.4 µM, a GI50 [33] of 20.2 µM and a TGI [33] of 34.8 µM. It also gave a GI50 [34] of 6.47 µM, a TGI [34] of 20.8 µM and a GI50 [35] of 17.1 µM. The TGI [35] was 34.9 µM, the GI50 [36] was 11.4 µM and the TGI [36] was 25.2 µM. It also gave a GI50 [37] of 0.044 µM, a TGI [37] of 0.51 µM and a GI50 [38] of 23.4 µM. For the same compound, the TGI [38] was 51 µM, the GI50 [39] was 10.2 µM and the TGI [39] was 24.1 µM. For the same compound, the GI50 [40] was 19.5 µM, the TGI [40] was 38.7 µM and the GI50 [41] was 6.69 µM. It also gave a TGI [41] of 20 µM, a GI50 [42] of 0.409 µM and a TGI [42] of 11.1 µM. For the same compound, the GI50 [43] was 18.5 µM, the TGI [43] was 36.9 µM and the GI50 [44] was 16.4 µM. For the same compound, the TGI [44] was 30.9 µM, the GI50 [45] was 17.5 µM and the TGI [45] was 31.3 µM. For the same compound, the GI50 [46] was 16.4 µM, the TGI [46] was 30 µM and the GI50 [47] was 10.2 µM. For the same compound, the TGI [47] was 21.8 µM, the GI50 [48] was 0.0692 µM and the TGI [48] was 1.58 µM. For the same compound, the GI50 [49] was 53.8 µM, the TGI [49] was > 100 µM and the GI50 [50] was 31.8 µM. For the same compound, the TGI [50] was > 100 µM, the GI50 [51] was 10.1 µM and the TGI [51] was 25.6 µM. The GI50 [52] was 23.9 µM, the TGI [52] was 47.8 µM and the GI50 [53] was 13.1 µM. It also gave a TGI [53] of 27.6 µM, a GI50 [54] of 21.2 µM and a TGI [54] of 53.3 µM. It also gave a GI50 [55] of 15.9 µM, a TGI [55] of 29.7 µM and a GI50 [56] of 15.4 µM. It also gave a TGI [56] of 28.8 µM, a GI50 [57] of 18.7 µM and a TGI [57] of 34.1 µM. The GI50 [58] was 30 µM and the TGI [58] was > 100 µM.
